Eleven molecules from ChEMBL document CHEMBL5465560, “Selectivity Literature for EUbOPEN Chemogenomic Library” (2024) can be followed below.

Experiment [1] addresses T1, Bromodomain-containing protein 4 (Homo sapiens, UniProt O60885). Description: Selectivity interaction (AlphaScreen binding assay) EUB0001632a BRD4.
For experiment [2], the target named is T2, Ephrin type-B receptor 1 (Homo sapiens) (UniProt P54762).
T2 sequence (whole entry): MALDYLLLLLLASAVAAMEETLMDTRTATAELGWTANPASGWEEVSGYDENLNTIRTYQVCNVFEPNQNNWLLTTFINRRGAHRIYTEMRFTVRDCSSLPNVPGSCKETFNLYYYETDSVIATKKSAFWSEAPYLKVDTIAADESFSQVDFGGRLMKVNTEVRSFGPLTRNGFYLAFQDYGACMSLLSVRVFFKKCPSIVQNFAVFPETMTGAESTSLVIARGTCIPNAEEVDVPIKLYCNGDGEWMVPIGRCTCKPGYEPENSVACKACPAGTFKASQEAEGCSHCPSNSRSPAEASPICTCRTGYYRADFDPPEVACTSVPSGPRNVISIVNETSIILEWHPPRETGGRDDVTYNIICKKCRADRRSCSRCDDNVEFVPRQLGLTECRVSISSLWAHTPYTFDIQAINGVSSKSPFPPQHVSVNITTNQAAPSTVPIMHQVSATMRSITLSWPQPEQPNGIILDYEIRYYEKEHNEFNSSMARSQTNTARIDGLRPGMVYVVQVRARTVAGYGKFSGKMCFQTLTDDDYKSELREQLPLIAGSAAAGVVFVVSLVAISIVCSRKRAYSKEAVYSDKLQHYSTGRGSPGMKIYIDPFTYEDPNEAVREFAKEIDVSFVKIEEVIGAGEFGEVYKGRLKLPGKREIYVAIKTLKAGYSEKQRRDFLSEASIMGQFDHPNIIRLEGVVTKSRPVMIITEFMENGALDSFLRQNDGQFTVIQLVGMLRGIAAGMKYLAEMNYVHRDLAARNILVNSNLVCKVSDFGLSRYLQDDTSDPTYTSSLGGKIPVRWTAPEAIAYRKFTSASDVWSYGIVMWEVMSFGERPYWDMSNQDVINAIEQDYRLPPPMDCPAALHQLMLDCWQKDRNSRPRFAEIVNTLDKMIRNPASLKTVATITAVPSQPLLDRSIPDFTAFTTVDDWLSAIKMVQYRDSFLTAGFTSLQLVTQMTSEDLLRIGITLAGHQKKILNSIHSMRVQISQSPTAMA
The conditions noted are these: at 10 µM.

Experiment [3] has as its target T1, Bromodomain-containing protein 4. The conditions noted are these: at 10 µM.
Experiment [4] addresses Tyrosine-protein kinase JAK2 (Homo sapiens, UniProt O60674). As to conditions: at 10 µM.
The target in experiment [5] is Casein kinase I isoform alpha (Homo sapiens, UniProt P48729). Description: Selectivity interaction (ActivX KiNativ screen (kinase selectivity in THP-1 cell lysates)) EUB0000639a CSNK1A1. The class given is subcellular. As to conditions: lysate, at 0.2 µM.
Sequence of Casein kinase I isoform alpha (P48729 2-337 limits assumed): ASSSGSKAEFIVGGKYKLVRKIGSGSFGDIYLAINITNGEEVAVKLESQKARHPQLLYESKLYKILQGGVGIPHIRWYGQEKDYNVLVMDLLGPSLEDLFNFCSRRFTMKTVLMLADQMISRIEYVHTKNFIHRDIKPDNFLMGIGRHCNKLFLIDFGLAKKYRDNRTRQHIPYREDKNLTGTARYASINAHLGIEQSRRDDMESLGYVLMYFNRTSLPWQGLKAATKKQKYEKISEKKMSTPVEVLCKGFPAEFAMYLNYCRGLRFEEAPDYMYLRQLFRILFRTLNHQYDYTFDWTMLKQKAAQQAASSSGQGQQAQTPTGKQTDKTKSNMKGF
The target in experiment [6] is Maternal embryonic leucine zipper kinase (Homo sapiens) (UniProt Q14680). Put plainly: Selectivity interaction (Kinase panel (Invitrogen)) EUB0000639a MELK. As to conditions: at 200 nM.
Experiment [7] has as its target MAP/microtubule affinity-regulating kinase 3 (Homo sapiens) (UniProt P27448). Description: Selectivity interaction (Kinase panel (Invitrogen)) EUB0000639a MARK3. The conditions noted are these: at 200 nM.
Experiment [8] concerns the target Protein arginine N-methyltransferase 3 (Homo sapiens, UniProt O60678). Put plainly: Selectivity interaction (Scintillation proximity assays) EUB0000230b PRMT3. For orientation: In a scintillation proximity assay essentially only radioactivity close to the scintillant gives light.
Experiment [9] addresses Serine/threonine-protein kinase 26 (Homo sapiens, UniProt Q9P289). Put plainly: Selectivity interaction (Kinase panel (DSF assay)) EUB0001559a STK26. On the technique in general: DSF heats the sample and reads unfolding from a dye or from intrinsic fluorescence.
Experiment [10] has as its target STE20-like serine/threonine-protein kinase (Homo sapiens, UniProt Q9H2G2). Description: Selectivity interaction (Kinase panel (DSF assay)) EUB0001559a SLK.
The target in experiment [11] is Casein kinase II subunit alpha (Homo sapiens, UniProt P68400). Description: Selectivity interaction (ProQinase) EUB0000171b CSNK2A1.
Sequence of Casein kinase II subunit alpha (P68400 whole entry, looked up): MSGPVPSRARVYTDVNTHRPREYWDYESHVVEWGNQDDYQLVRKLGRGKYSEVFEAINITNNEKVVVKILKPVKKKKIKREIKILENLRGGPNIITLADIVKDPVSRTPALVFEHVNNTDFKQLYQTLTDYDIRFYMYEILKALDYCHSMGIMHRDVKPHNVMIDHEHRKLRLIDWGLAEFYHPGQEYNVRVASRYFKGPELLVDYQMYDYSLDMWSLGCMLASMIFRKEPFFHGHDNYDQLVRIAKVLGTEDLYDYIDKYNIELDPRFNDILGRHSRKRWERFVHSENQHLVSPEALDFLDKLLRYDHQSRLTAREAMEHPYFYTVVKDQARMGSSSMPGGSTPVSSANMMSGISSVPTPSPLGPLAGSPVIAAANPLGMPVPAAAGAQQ
In experiment [12] the test system is Proto-oncogene tyrosine-protein kinase receptor Ret (Homo sapiens), P07949 [V804M]. Put plainly: (§1) Selectivity interaction (Ambit KINOMEscan and KiNATiv profiling in Jurkat cells) EUB0000090b RET. It counts as cell-based. The conditions noted are these: at 1 µM.
For experiment [13], the system named is Proto-oncogene tyrosine-protein kinase receptor Ret (Homo sapiens), P07949 [M918T]. The experiment is described as §1. The conditions noted are these: at 1 µM. The class given is cell-based.
In experiment [14] the target is Proto-oncogene tyrosine-protein kinase receptor Ret (Homo sapiens, UniProt P07949). The experiment is described as §1. The conditions noted are these: at 1 µM. It counts as cell-based.
Sequence of Proto-oncogene tyrosine-protein kinase receptor Ret (P07949 whole entry): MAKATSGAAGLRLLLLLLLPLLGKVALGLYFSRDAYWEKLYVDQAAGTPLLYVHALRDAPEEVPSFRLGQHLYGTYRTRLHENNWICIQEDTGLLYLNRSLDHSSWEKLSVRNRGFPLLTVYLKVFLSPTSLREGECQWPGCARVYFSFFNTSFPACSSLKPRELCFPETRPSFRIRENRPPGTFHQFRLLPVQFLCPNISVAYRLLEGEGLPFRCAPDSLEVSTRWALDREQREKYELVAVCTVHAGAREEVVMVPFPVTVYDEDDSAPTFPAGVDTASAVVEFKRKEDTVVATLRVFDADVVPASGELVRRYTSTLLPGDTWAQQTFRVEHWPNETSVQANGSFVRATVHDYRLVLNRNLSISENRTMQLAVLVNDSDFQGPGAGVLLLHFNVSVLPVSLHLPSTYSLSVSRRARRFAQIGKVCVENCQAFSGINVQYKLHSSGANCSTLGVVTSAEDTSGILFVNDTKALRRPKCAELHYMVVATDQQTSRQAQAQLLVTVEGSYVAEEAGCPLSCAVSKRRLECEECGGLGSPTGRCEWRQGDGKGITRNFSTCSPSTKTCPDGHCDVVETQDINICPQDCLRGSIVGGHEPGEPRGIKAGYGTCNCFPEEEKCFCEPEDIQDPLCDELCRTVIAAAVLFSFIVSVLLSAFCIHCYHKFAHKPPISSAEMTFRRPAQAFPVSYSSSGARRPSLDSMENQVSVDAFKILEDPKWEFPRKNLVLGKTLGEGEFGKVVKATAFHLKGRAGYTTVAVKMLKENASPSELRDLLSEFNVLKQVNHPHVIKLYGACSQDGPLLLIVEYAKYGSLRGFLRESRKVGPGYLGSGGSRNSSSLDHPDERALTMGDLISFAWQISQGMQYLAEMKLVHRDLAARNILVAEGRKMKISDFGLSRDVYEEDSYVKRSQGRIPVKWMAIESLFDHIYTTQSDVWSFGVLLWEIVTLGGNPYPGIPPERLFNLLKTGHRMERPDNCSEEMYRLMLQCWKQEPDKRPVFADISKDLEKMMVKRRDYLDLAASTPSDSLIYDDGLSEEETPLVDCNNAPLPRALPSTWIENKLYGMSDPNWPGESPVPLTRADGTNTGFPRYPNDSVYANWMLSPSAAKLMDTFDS
For experiment [15], the system named is Proto-oncogene tyrosine-protein kinase receptor Ret (Homo sapiens), P07949 [V804L]. Described as §1. The conditions noted are these: at 1 µM. It counts as cell-based.
The target of experiment [16] is Tyrosine-protein kinase receptor Tie-1 (Homo sapiens) (UniProt P35590). Description: Selectivity interaction (KinomeScan (DiscoverX)) EUB0001079a TIE1. As to conditions: at 1 µM.
Experiment [17] deals with Tyrosine-protein kinase Blk (Homo sapiens) (UniProt P51451). Put plainly: Selectivity interaction (KinomeScan (DiscoverX)) EUB0000229b BLK. The conditions noted are these: at 10 µM.
Experiment [18] addresses Serine/threonine-protein kinase MARK2 (Homo sapiens) (UniProt Q7KZI7). Put plainly: Selectivity interaction (Kinase panel (KiNativ target engagement assay in Jurkat cells)) EUB0001635a MARK2. It counts as cell-based. As to conditions: Selectivity number of off-targets 0.0, Selectivity number of targets 233.0, Source Knowledge https://www.sciencedirect.com/science/article/pii/S2451945619300674?via%3Dihub, at 1 µM.

The structures appear in SMILES notation.

Sequence of Tyrosine-protein kinase JAK2 (O60674 whole entry, canonical isoform): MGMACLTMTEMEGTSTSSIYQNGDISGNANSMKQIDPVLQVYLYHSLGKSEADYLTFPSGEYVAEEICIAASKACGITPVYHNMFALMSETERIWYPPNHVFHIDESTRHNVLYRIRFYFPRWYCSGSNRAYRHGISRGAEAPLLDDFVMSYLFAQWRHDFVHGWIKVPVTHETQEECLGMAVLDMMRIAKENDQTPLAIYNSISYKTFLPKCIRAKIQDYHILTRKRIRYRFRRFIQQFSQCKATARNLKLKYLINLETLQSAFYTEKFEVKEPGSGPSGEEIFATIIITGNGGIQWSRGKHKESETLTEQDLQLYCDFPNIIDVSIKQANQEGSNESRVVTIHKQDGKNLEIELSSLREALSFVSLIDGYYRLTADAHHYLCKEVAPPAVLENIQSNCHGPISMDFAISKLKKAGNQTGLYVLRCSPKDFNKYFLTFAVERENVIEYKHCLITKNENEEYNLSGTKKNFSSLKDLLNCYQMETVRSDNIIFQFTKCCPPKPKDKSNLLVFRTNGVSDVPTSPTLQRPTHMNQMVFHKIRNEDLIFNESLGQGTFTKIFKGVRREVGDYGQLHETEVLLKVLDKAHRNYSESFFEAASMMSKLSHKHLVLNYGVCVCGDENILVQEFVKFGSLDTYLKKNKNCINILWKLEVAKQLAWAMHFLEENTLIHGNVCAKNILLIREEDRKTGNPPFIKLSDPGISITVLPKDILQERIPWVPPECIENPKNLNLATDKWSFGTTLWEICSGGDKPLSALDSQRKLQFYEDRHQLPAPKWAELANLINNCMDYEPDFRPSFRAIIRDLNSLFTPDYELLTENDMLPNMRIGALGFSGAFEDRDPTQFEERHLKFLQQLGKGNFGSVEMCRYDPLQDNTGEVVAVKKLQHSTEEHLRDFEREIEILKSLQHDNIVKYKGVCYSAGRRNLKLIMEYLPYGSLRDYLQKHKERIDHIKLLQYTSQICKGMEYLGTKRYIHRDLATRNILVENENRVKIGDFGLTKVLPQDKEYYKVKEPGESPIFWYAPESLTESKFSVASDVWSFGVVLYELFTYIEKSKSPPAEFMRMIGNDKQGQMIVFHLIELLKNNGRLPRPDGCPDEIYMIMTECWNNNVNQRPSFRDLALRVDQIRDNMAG
Sequence of Protein arginine N-methyltransferase 3 (O60678 whole entry): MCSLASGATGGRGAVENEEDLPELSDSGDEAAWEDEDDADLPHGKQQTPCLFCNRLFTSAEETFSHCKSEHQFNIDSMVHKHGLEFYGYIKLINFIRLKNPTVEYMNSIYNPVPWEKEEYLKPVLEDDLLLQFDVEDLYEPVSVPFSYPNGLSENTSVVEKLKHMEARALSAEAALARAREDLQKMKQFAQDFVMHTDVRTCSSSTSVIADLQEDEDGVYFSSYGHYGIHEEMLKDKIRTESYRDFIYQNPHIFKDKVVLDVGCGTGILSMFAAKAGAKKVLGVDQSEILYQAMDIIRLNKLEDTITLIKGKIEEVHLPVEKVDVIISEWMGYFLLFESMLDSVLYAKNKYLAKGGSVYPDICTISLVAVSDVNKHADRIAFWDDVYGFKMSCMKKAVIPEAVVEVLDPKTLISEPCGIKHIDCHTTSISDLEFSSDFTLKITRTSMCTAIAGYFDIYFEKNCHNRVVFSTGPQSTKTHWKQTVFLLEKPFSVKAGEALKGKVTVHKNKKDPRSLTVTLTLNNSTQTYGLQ
Sequence of MAP/microtubule affinity-regulating kinase 3 (Homo sapiens) (P27448 whole entry, looked up): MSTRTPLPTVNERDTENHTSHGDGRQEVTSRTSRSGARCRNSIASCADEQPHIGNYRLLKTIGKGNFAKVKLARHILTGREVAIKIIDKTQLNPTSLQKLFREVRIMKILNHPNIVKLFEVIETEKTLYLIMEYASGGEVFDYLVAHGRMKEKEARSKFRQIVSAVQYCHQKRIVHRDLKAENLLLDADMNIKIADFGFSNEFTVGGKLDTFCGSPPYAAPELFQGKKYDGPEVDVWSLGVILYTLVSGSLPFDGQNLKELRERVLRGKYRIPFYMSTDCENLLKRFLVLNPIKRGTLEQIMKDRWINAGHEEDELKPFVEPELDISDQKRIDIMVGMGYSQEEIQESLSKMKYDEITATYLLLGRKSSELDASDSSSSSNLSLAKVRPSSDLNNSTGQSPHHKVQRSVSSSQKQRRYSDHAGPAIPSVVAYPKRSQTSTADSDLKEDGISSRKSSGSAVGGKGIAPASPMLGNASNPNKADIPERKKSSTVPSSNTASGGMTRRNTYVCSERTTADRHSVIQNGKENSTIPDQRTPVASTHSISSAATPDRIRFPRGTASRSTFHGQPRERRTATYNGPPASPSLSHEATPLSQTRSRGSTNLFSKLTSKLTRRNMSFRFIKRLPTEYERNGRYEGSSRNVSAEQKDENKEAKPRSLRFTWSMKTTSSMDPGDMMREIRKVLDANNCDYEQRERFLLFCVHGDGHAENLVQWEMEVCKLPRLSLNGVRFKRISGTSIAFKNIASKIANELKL
Sequence of Serine/threonine-protein kinase MARK2 (Homo sapiens) (Q7KZI7 whole entry): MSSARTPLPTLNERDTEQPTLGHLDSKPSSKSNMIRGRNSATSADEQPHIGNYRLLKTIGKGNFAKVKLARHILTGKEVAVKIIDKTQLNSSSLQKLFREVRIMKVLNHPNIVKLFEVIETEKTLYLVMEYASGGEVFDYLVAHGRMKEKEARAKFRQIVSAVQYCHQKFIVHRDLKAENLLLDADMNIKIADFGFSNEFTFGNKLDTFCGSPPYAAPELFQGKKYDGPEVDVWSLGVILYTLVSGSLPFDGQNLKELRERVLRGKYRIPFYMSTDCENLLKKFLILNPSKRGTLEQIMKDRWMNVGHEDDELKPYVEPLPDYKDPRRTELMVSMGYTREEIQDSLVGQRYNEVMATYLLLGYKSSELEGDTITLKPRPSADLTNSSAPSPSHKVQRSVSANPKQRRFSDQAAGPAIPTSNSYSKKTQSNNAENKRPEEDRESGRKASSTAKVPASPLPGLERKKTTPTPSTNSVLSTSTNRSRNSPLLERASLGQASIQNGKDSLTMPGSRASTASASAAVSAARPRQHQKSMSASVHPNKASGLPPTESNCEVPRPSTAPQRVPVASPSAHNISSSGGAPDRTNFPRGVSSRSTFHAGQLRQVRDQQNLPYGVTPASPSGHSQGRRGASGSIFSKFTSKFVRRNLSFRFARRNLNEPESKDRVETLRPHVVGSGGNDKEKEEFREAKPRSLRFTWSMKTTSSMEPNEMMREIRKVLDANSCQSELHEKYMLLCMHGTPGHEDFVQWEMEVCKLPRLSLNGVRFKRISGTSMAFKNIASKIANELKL

With `Cn1cc(-n2cnc3c(NCc4nc5cc(Cl)c(Cl)cc5[nH]4)nc(N4CCOCC4)nc32)cn1`, the IC50 (commonly the point on the concentration scale where inhibition reaches its midpoint) in experiment [1] is more than 10 µM.
In experiment [2], `CCN(CC)CCCCNc1ncc2cc(-c3cc(OC)cc(OC)c3)c(NC(=O)NC(C)(C)C)nc2n1` had a % of control of 100%.
As to `Cc1cc([C@@H](C)Nc2ccccc2C(=O)O)c2nc(N3CCOCC3)cc(=O)n2c1` [AZD-6482], the figures for the % of control in [3] and in [4] were 82% and 62%, respectively.
`CC[C@@H]1[C@H](F)C(=O)N[C@@H]1COc1nccc2cc(C(N)=O)c(OC)cc12` [ZIMLOVISERTIB]: the % of inhibition in experiment [5] was -3.6%; in experiment [6], 25.9%; in [7], 12.4%.
Molecule `CNCCN1CCC(c2cc(CN(C)C(=O)c3cccc(Oc4ccccc4)c3)ccn2)CC1` displayed an IC50 in [8] of more than 10 µM.
On to `CN(C(=O)c1cnn2cccnc12)c1cc2c(cc1N1CCOCC1)C(=O)N(C[C@@H](F)C(C)(C)O)C2`, for which the dTM came to 0.5 K in experiment [9] and 1 K in [10].
As for `C=CC(=O)Nc1cccc(C(=O)Nc2ccc(Nc3cc(-c4[nH]c(SC)nc4C)ccn3)cc2)c1`, the % of control in [11] (at 1 µM) came to 92%; in [11] (at 5 µM), 75%.
With `CN(C)C/C=C/C(=O)Nc1ccc(C(=O)N2CCCC(Nc3ncc(Cl)c(-c4c[nH]c5ccccc45)n3)C2)cc1` (centres undefined), the % of control was 89% in experiment [12], 68% in experiment [13], 90% in [14] and 71% in experiment [15].
Take `Nc1cnc(N2CCc3cc(S(=O)(=O)Nc4c(F)cc(Cl)cc4F)cc(N4CCCC4=O)c32)nc1` [TP-020n]: in [16], the % of control was 100%.
Take `COc1cc(N(C)c2ccnc3ccc(C(F)(F)F)cc23)cc(OC)c1OC`: the % binding in experiment [17] stood at 100%.
`C=CC(=O)Nc1ccc(C(=O)Nc2[nH]nc3c2CN(C(=O)N[C@H](CN(C)C)c2ccccc2)C3(C)C)cc1`: in experiment [18], the % of engagement was -1.9%.
